Reference: US9228952B2, “Hematopoietic stem cell identification probe” (CANON KABUSHIKI KAISHA, priority 2012, dated 2016)

Key:
[1] = system: CD48 negative and CD150 positive fraction of bone marrow cells; experiment: Experimental Example 18: compound 7 staining with anti CD48 / anti CD150 antibody markers, flow cytometry; assay type: cell-based, mouse; conditions: cytogram of two compound 7-derived fluorescence signals
Description: Cells collected from a mouse were subjected to the exposure to the compound 7 and a blocking treatment in the same manner as in Experimental Example 1. In order to evaluate incorporation of antibody markers, used as test substances, of an anti CD48 antibody and an anti CD150 antibody by hematopoietic stem cells, the blocked cells were further stained with the anti CD48 antibody and the anti CD150 antibody. Furthermore, the resulting cells were subjected to dead cell staining with TO-PRO-3. Next, the cells were analyzed with an FACS Canto II flow cytometer manufactured by BD Biosciences. In the analysis, cell populations having a low TO-PRO-3 signal were regarded as a target, so that the analysis could be performed on a cell population excluding dead cells.

[2] = Measurement of fluorescence characteristics of compounds (fluorescence spectrophotometer); assay type: physicochemical; conditions: 5 μM DMSO solution
Procedure: With respect to each of the compounds 7 to 23, a 5 μM DMSO solution was prepared, and an excitation wavelength and a fluorescence wavelength were measured by using a fluorescence spectrophotometer FL4500 manufactured by Hitachi High-Technologies Corporation (Table 1).

[3] = system: c-Kit positive hematopoietic stem cells (bone marrow cells); experiment: Experimental Example 19: exposure to compound 7 in the presence of test substances, c-Kit staining, FACS; assay type: cell-based, mouse
Procedure: Cells collected from a mouse in the same manner as in Experimental Example 1 were exposed to the compound 7 in the presence of test substances of fumitremorgin C and digoxin (both in 1 μM). After performing a blocking treatment in the same manner as in Experimental Example 1, the resulting cells were stained with an anti c-Kit antibody, that is, a marker for hematopoietic stem cells and hematopoietic precursor cells. The cells were further subjected to the dead cell staining with TO-PRO-3. Next, the cells were analyzed with FACS Aria II cell sorter manufactured by BD Biosciences. In the analysis, cell populations having a low TO-PRO-3 signal were regarded as a target, so that the analysis could be performed on a cell population excluding dead cells.
In other words, hematopoietic stem cell groups that were c-Kit positive and negative for the compound 7-derived signal were confirmed to be reduced by adding the test substances.

[4] = system: hematopoietic stem cells (bone marrow cells); experiment: Identification of hematopoietic stem cells in stained bone marrow cells by FACS with antibody markers (Experimental Examples 1-17, Comparative Examples 1-2); assay type: cell-based, C57BL/6 mouse; design: key to Identification of hematopoietic stem cells: A: Hematopoietic stem cells are identified very well.; B: Hematopoietic stem cells are identified well.; C: Hematopoietic stem cells are poorly identified; conditions: for Identification of hematopoietic stem cells: mouse bone marrow cells, FACS
Procedure: A 1 mM DMSO solution of the compound 7 was added to an HBSS buffer containing 2% of FBS and 10 mM of HEPES, so as to obtain a stain of the compound 7 in a concentration of 1 μM. Bone marrow cells collected from a femur of a C57BL/6 mouse (of 12 weeks old) and hemolyzed were added to the stain in an amount of 1×10^6 cells/mL for exposure at 37° C. for 30 minutes. After the exposure, the cells were precipitated by centrifuge for removing the stain, and a blocking treatment was performed with 2.4G2 (anti-mouse Fcγ receptor II/III antibody-producing hybridoma supernatant). The blocked cells were further subjected to immunofluorescence staining with an anti c-Kit antibody, an anti Sca-1 antibody, an anti CD34 antibody and Lineage Marker. Furthermore, the cells were subjected to dead cell staining with TO-PRO-3. The respective antibodies used for fluorescence staining were selected so that the respective fluorescence wavelengths might not overlap one another and might not overlap the fluorescence wavelength of the compound 7 and the fluorescence wavelength of TO-PRO-3. Next, the resulting cells were analyzed with FACS Aria II cell sorter manufactured by BD Biosciences. In the analysis, cell populations having a low TO-PRO-3 signal were regarded as a target, so that the analysis could be performed on a cell population excluding dead cells.
First, fluorescence intensities of the cells obtained by analyzing fluorescence signals derived from the compound 7 based on signal intensities in two channels excited at 488 nm (PE-Cy5; 660/20 nm and PerCP-Cy 5.5; 710/50 nm: center wavelength/wavelength width) were developed into a cytogram.
Furthermore, among Lineage Marker negative cell fractions, cell fractions of Sca-1 positive, c-Kit positive and CD34 negative, which are used as markers for hematopoietic stem cells, were developed into cytograms as illustrated in FIG. 2 with respect to the two fluorescence signals derived from the compound 7 as in FIG. 1. […] Furthermore, merely cells identified by the compound 7 were separated by sorting.
Fluorescence signals derived from the compounds 8 to 23 were analyzed in the same manner as in Experimental Example 1 except that the compound 7 used in Experimental Example 1 was changed to each of the compounds 8 to 23.
Fluorescence signals derived from fluorescein were analyzed in the same manner as in Experimental Example 1 except that the compound 7 used in Experimental Example 1 was changed to fluorescein.
Fluorescence signals derived from Mito Tracker® Green FM were analyzed in the same manner as in Experimental Example 1 except that the compound 7 used in Experimental Example 1 was changed to Mito Tracker® Green FM.
The identification was evaluated in the following three grades A to C: […]

[5] = cells exposed to compound 7 in the presence of test substance 1 μM

Excitation wavelength λex [2] [nm]	Fluorescence wavelength λem [2] [nm]	Compound	Cells of CD48 negative and CD150 positive fraction present in region where hematopoietic stem cells were identified [1] [%]	c-Kit positive, compound 7-derived signal negative hematopoietic stem cells in the whole cells ([3]; in the absence of an inhibitor (w/o inhibitors)) [%]	Whether hematopoietic stem cells can be identified (in words) ([4]; same manner as Experimental Example 1)	Identification of hematopoietic stem cells ([4]; stain 1 μM, 37° C., 30 minutes)	Lineage Marker negative, Sca-1 positive, c-Kit positive and CD34 negative hematopoietic stem cell fractions found in cell population having low incorporation of the probe ([4]; stain 1 μM, 37° C., 30 minutes, two channels excited at 488 nm) [%]	c-Kit positive, compound 7-derived signal negative hematopoietic stem cells in the whole cells [3, 5] [%]
539	638	CCCCN1C(=O)/C(=c2\s/c(=C/c3ccc4c(c3)C3CCCC3N4c3ccc(OC)cc3)c(=O)n2CC)SC1=S (stereo not shown) [Compound 7]	89.4	0.75	hematopoietic stem cells can be identified	A	94.7	–
513	600	CCN1C(=O)/C(=c2\s/c(=C/c3cc(Br)c4c(c3)C3CCCC3N4c3ccc(Br)cc3)c(=O)n2CC(=O)O)SC1=S (stereo not shown) [Compound 8]	–	–	–	A	–	–
543	638	CCN1C(=O)/C(=c2\s/c(=C/c3ccc4c(c3)C3CCCC3N4c3ccc(OC)cc3)c(=O)n2CC(=O)O)SC1=S (stereo not shown) [Compound 9]	–	–	–	A	–	–
540	614	O=C(O)Cn1c(=O)/c(=C\c2ccc3c(c2)C2CCCC2N3Cc2ccccc2)s/c1=C1/SC(=S)N(Cc2ccccc2)C1=O (stereo not shown) [Compound 10]	–	–	–	A	–	–
542	643	COc1ccc(N2c3ccc(/C=c4/s/c(=C5/SC(=S)N(Cc6ccccc6)C5=O)n(CC(=O)O)c4=O)cc3C3CCCC32)cc1 (stereo not shown) [Compound 11]	–	–	–	A	–	–
531	615	CCN1C(=O)/C(=c2\s/c(=C/c3ccc4c(c3)C3CCCC3N4c3ccccc3)c(=O)n2CC(=O)O)SC1=S (stereo not shown) [Compound 12]	–	–	–	A	–	–
539	636	CCN1C(=O)/C(=c2\s/c(=C/c3ccc4c(c3)C3CCCC3N4c3ccc(SC)cc3)c(=O)n2CC(=O)O)SC1=S (stereo not shown) [Compound 13]	–	–	–	A	–	–
596	520	CCN1C(=O)/C(=c2\s/c(=C/c3cc(Br)c4c(c3)C3CCCC3N4Cc3ccccc3)c(=O)n2CC(=O)O)SC1=S (stereo not shown) [Compound 14]	–	–	–	A	–	–
504	606	C=CCN1C(=O)/C(=c2\s/c(=C/c3ccc4c(c3)C3CCCC3N4c3ccc(OC)cc3)c(=O)n2CC(=O)O)SC1=S (stereo not shown) [Compound 15]	–	–	–	A	–	–
500	578	CCN1C(=O)S/C(=c2/s/c(=C/c3ccc4c(c3)C3CCCC3N4Cc3ccccc3)c(=O)n2CC(=O)O)C1=O (stereo not shown) [Compound 16]	–	–	–	B	–	–
535	612	CCN1C(=O)/C(=c2\s/c(=C/c3ccc4c(c3)C3CCCC3N4Cc3ccccc3)c(=O)n2CC(=O)O)SC1=S (stereo not shown) [Compound 17]	–	–	–	A	–	–
539	636	CCCN1C(=O)/C(=c2\s/c(=C/c3ccc4c(c3)C3CCCC3N4c3ccc(OC)cc3)c(=O)n2CC)SC1=S (stereo not shown) [Compound 18]	–	–	–	A	–	–
538	638	CCCCCN1C(=O)/C(=c2\s/c(=C/c3ccc4c(c3)C3CCCC3N4c3ccc(OC)cc3)c(=O)n2CC)SC1=S (stereo not shown) [Compound 19]	–	–	–	B	–	–
533	615	CCn1c(=O)/c(=C\c2ccc3c(c2)C2CCCC2N3c2ccccc2)s/c1=C1/SC(=S)N(CC(=O)O)C1=O (stereo not shown) [Compound 20]	–	–	–	B	–	–
530	612	CCN1C(=O)/C(=c2\s/c(=C/c3ccc4c(c3)C3CCCC3N4c3cccc(SC)c3)c(=O)n2CC(=O)O)SC1=S (stereo not shown) [Compound 21]	–	–	–	A	–	–
511	626	COc1ccc(N2c3ccc(/C=C4/SC(=S)N(CC(=O)NCC(=O)O)C4=O)cc3C3CCCC32)cc1 (stereo not shown) [Compound 22]	–	–	–	A	–	–
499	598	O=C(O)CNC(=O)CN1C(=O)/C(=C\c2ccc3c(c2)C2CCCC2N3c2ccccc2)SC1=S (stereo not shown) [Compound 23]	–	–	–	A	–	–
–	–	O=C1OC2(c3ccc(O)cc3Oc3cc(O)ccc32)c2ccccc21 [Fluorescein, fluorescein, reference compound]	–	–	–	C (not stained	–	–
–	–	C[C@H]1O[C@@H](O[C@H]2[C@@H](O)C[C@H](O[C@H]3[C@@H](O)C[C@H](O[C@H]4CC[C@@]5(C)[C@H](CC[C@@H]6[C@@H]5C[C@@H](O)[C@]5(C)[C@@H](C7=CC(=O)OC7)CC[C@]65O)C4)O[C@@H]3C)O[C@@H]2C)C[C@H](O)[C@@H]1O [digoxin]	–	–	–	–	–	0.50
–	–	COc1ccc2c3c([nH]c2c1)[C@H](C=C(C)C)N1C(=O)[C@@H]2CCCN2C(=O)[C@@H]1C3 [fumitremorgin C]	–	–	–	–	–	0.00
